Publication PMC5812345 (Chemistry (Weinheim an der Bergstrasse, Germany), 2017)

System: U87-stb-CXCR4 cells
Experiment: In vitro binding/uptake of 64Cu-labeled cyclotides to U87-stb-CXCR4 cells
Format: cell-based, human
Conditions: inhibitor at 10 μM

c1cc(CN2CCCNCCNCCCNCC2)ccc1CN1CCCNCCNCCCNCC1 [AMD3100]
Reduction in bound [^64Cu]MCo-CVX-6D in the presence of excess non-radioactive inhibitor: ≈ 30%
